Test results published in US5827896A, “Pinitol and derivatives thereof for the treatment of metabolic disorders” (priority 1996, dated 1998).
Several values for one entry are separate records, joined by “and”; a condition that tells them apart may be missing. Equal values may be shown once.

Experiments:
clinical = conditions: in vivo
Protocol: (§1) Five non-insulin-dependent diabetic subjects were studied on two occasions one week apart. For three days the subjects received pinitol 4.15 mg/kg/day orally in a drink once daily for 3 days. The preparation also contained 0.85 mg/kg/day D-chiro-inositol in other forms. The total inositol content by weight (including pinitol) was 22.5%. On the fourth day they took no morning dose of oral hypoglycemic agents and reported to the Clinical Research Center. Baseline blood samples were taken at -90 and -60 minutes, and at -60 minutes a dose of pinitol identical to that taken during the previous 3 days was given orally. The material contained less than 5 calories. At zero time 75 g glucose was given to begin a glucose tolerance test and blood samples were taken half-hourly for 3 hours. In random order the subjects received either myo-inositol (5 mg/kg/day) or soy pinitol (total inositol content 5 mg/kg/day). […] Plasma inositol levels were measured by gas chromatography/mass spectrometry and insulin levels were measured by RIA.

plasma insulin [1] = assay: plasma insulin during oral glucose tolerance test (RIA) in non-insulin-dependent Type II diabetics (Example 3); format: in vivo, human
Protocol: as §1

plasma glucose [2] = assay: plasma glucose during oral glucose tolerance test in non-insulin-dependent Type II diabetics (Example 3); format: in vivo, human
Text: The material contained less than 5 calories.

plasma free fatty acids = assay: fasting plasma free fatty acids in NIDDM patients, placebo-controlled crossover (Example 5); format: in vivo, human; conditions: 5 days
Protocol: (§2) 10 non-insulin-dependent diabetes patients maintained a pinitol and D-chiro-inositol-deficient diet (no legumes, or citrus fruits) throughout the study. […] The following table summarizes the characteristics of the patients.
(§3) Each subject received both placebo and soy-derived pinitol in separate tests. After an initial 5-day washout period the subjects received 5 days of treatment with either pinitol 5 mg/kg BID (total dose 10 mg/kg/day) or placebo without inositols. The material was given orally in 60 ml. calorie-free KOOL-AID drink.
(§4) Twelve hours after the last dose, two fasting plasma samples were drawn from each subject 15 minutes apart. Plasma free fatty acid levels were measured. A dose of pinitol was then given and a 3-hour glucose tolerance test was performed.
(§5) After a second 5-day washout period and another 5 days of pinitol or placebo feeding the testing was repeated. The order of treatment (pinitol or lacebo) was randomized and study investigatyors and those conducting the analyses were blinded to the order of treatment given.

[3] = fasting plasma pinitol and chiro-inositol levels in NIDDM patients (Example 5); format: in vivo, human
Protocol: as §2, §3, §4, §5

[4] = acid hydrolysis of pinitol to D-chiro-inositol in 6N HCl; format: physicochemical; conditions: 24 hr at 110° in 6N HCl
Protocol: The highly standardized components of Purina Rodent Chow 5001 were analyzed by gas chromatography-mass spectrometry after hydrolysis in 6N HCI at 110° for 24 hr. to convert the pinitol to D-chiro-inositol and the results are presented in Table I below:
In contrast to other ether linkages it is not necessary to use concentrated hydrogen iodide to convert pinitol to D-chiro-inositol as detailed in U.S. Pat. No. 5,091,596.

plasma insulin [5] = conditions: stated as basis for use as control; cited from earlier work
plasma glucose [6] = conditions: stated as basis for use as control; cited from earlier work
[7] = before glucose, during pinitol treatment
[8] = compared to the pinitol-deficient diet

SMILES | plasma D-chiro-inositol reached (clinical; human, 240 min) [µM] | Cmax at 3 h (clinical; human, po, 4.15 mg/kg/day) [nM] | time of peak plasma pinitol after oral administration (clinical; po) | Insulin Area, Pinitol (plasma insulin [1]; 75 g glucose tolerance test, 3 hours, soy pinitol (total inositol 5 mg/kg/day orally), one value per subject (1-5)) | baseline insulin levels (plasma insulin [1]; [7]) | reduction of insulin area during the glucose tolerance test (plasma insulin [1]; pinitol vs myo-inositol, five subjects, p=0.046) [%] | Insulin Area, Percent Change (Reduction) (plasma insulin [1]; pinitol vs myo-inositol, one value per subject (1-5)) | baseline glucose levels (plasma glucose [2]; [7]) | reduction in plasma glucose area (mg/dl×minutes) during the glucose tolerance test (plasma glucose [2]; pinitol vs myo-inositol, five subjects, p=0.11) [%] | Fasting plasma free fatty acids (plasma free fatty acids; pinitol 5 mg/kg BID (10 mg/kg/day) orally, twelve hours after last dose, Mean ± SD, placebo 648 ± 244, P 0.05) [µM] | reduction in mean fasting plasma free fatty acids (plasma free fatty acids; pinitol 5 mg/kg BID, vs placebo, p=0.05 by paired t-test) [%] | plasma chiro-inositol on pinitol feeding [3, 8] | plasma pinitol on pinitol feeding [3, 8] | concentration at 12 h ([3]; human, plasma, po, pinitol 5 mg/kg BID orally, 5 days, twelve hours after last dose, Mean ± SD, placebo 0.014 ± 0.012, P <0.0001) [nM] | conversion to D-chiro-inositol on acid hydrolysis [4] | Insulin Area, myo-Inositol (plasma insulin [1]; 75 g glucose tolerance test, 3 hours, myo-inositol 5 mg/kg/day (control), one value per subject (1-5)) | effect on plasma insulin (plasma insulin [5]) | effect on plasma glucose (plasma glucose [6])
CO[C@H]1[C@H](O)[C@@H](O)[C@@H](O)[C@H](O)[C@@H]1O [Pinitol, 3-O-methyl-D-chiro-inositol] | 1.7 | 5400 | three | 8844 μU/ml × minutes and 4032 μU/ml × minutes and 1518 μU/ml × minutes and 1566 μU/ml × minutes and 1197 μU/ml × minutes | unchanged | 25.2±8.9 | 51.1% and 12.3% and 32.6% and 30.6% and 0.5% | unchanged | 18.8±9.1 | 569 ± 276 | 12.2 | increased substantially | increased substantially | 488 ± 290 | quantitatively converted to D-chiro-inositol |  |  | 
O[C@H]1[C@H](O)[C@@H](O)[C@H](O)[C@@H](O)[C@H]1O [myo-Inositol, myo-inositol, reference compound] |  |  |  |  |  |  |  |  |  |  |  |  |  |  |  | 18066 μU/ml × minutes and 4599 μU/ml × minutes and 2253 μU/ml × minutes and 2256 μU/ml × minutes and 1191 μU/ml × minutes | no definite effect | no definite effect
